The series is described as follows: Serum and CSF concentrations in monkey (LC-MS/MS). The following applies: 0.1 mg kg-1. The format is in vivo, rhesus monkey (Macaca mulatta). The protocol: Monkey blood and CSF samples were collected from totally implanted subcutaneous access ports (Access Technologies, Virginia), connected to catheters indwelling in the femoral artery or intrathecal space of the spinal column, respectively. Rodent blood samples and brains were collected immediately following sacrifice at the indicated time points after intraperitoneal injection (10 ml kg^−1) in buffered saline. CSF was immediately frozen on dry ice and stored at −80 °C. Blood samples were allowed to coagulate for 15 min and then centrifuged at 4 °C for 15 min. Serum was collected from the supernatant and stored at a minimum of −30 °C until extraction. To 25 µl of serum, 5 µl of internal standard and 110 µl of methanol were added. Samples were centrifuged for 10 min at 16,200×g at 4 °C and the supernatant was transferred to the autosampler vial for analysis. Brains were cut in half and weighed prior to sample preparation. Half brains were homogenized in 490 µl of 85% ethanol: 15% water containing 0.1% formic acid and 5 µl of internal standard using a polytron homogenizer and centrifuged for 10 min at 16,200×g at 4 °C. […]
Data were acquired using a Nexera XR HPLC (Shimadzu) coupled with a QTRAP 6500 (SCIEX), and was analyzed with Analyst 1.6 (SCIEX). […]
The data were measured using standard curves and quality controls, but it was not validated to ICH guidelines. […]

`CCN1CCN(C2=Nc3cc(Cl)ccc3Nc3c(F)cccc32)CC1` [JHU37160, 8-Chloro-11-(4-ethylpiperazin-1-yl)-4-fluoro-5H-dibenzo[b,e][1,4]diazepine]: the CSF concentration result is given as “below our system’s detection limit” and the serum detection entry is given as “detected in serum”.

Source of the values: publication PMC6788984, “High-potency ligands for DREADD imaging and activation in rodents and monkeys” (Nature Communications, 2019).
